This assay concerns the target T1, human Nav1.8/b3 (Homo sapiens, UniProt Q9Y5Y9).
T1 construct: expressed in transfected cells; host or cells: CHO
In words: Compound Profiling Human NaV1.8/β3 Cell Line—SyncroPatch384PE Assay (automated patch clamp, stably transfected CHO cells). The assay is classed as cell-based. The settings on record: Nav1.8/b3 CHO cells.

The mark [1] stands for this setting: P1 (IC50, resting state block), P1 measurement, resting state block, holding potential −120 mV, fourth set of compounds.
Setting [2] is: P2 (IC50, inactivated state block), P2 measurement, inactivated state block, inactivation step −35 mV 10 sec, fourth set of compounds.
[3] abbreviates: P1 (IC50, resting state block), P1 measurement, resting state block, holding potential −120 mV, second set of compounds.
Setting [4] is: P2 (IC50, inactivated state block), P2 measurement, inactivated state block, inactivation step −35 mV 10 sec, second set of compounds.
[5] abbreviates: P1 (IC50, resting state block), P1 measurement, resting state block, holding potential −120 mV, third set of compounds.
The mark [6] stands for this setting: P2 (IC50, inactivated state block), P2 measurement, inactivated state block, inactivation step −35 mV 10 sec, third set of compounds.

Where a name gives a salt, the structure may show the parent alone. Read-outs that look alike come from different tables or passages of the source. Some results are limits rather than exact numbers.

T1 sequence (Q9Y5Y9 whole entry): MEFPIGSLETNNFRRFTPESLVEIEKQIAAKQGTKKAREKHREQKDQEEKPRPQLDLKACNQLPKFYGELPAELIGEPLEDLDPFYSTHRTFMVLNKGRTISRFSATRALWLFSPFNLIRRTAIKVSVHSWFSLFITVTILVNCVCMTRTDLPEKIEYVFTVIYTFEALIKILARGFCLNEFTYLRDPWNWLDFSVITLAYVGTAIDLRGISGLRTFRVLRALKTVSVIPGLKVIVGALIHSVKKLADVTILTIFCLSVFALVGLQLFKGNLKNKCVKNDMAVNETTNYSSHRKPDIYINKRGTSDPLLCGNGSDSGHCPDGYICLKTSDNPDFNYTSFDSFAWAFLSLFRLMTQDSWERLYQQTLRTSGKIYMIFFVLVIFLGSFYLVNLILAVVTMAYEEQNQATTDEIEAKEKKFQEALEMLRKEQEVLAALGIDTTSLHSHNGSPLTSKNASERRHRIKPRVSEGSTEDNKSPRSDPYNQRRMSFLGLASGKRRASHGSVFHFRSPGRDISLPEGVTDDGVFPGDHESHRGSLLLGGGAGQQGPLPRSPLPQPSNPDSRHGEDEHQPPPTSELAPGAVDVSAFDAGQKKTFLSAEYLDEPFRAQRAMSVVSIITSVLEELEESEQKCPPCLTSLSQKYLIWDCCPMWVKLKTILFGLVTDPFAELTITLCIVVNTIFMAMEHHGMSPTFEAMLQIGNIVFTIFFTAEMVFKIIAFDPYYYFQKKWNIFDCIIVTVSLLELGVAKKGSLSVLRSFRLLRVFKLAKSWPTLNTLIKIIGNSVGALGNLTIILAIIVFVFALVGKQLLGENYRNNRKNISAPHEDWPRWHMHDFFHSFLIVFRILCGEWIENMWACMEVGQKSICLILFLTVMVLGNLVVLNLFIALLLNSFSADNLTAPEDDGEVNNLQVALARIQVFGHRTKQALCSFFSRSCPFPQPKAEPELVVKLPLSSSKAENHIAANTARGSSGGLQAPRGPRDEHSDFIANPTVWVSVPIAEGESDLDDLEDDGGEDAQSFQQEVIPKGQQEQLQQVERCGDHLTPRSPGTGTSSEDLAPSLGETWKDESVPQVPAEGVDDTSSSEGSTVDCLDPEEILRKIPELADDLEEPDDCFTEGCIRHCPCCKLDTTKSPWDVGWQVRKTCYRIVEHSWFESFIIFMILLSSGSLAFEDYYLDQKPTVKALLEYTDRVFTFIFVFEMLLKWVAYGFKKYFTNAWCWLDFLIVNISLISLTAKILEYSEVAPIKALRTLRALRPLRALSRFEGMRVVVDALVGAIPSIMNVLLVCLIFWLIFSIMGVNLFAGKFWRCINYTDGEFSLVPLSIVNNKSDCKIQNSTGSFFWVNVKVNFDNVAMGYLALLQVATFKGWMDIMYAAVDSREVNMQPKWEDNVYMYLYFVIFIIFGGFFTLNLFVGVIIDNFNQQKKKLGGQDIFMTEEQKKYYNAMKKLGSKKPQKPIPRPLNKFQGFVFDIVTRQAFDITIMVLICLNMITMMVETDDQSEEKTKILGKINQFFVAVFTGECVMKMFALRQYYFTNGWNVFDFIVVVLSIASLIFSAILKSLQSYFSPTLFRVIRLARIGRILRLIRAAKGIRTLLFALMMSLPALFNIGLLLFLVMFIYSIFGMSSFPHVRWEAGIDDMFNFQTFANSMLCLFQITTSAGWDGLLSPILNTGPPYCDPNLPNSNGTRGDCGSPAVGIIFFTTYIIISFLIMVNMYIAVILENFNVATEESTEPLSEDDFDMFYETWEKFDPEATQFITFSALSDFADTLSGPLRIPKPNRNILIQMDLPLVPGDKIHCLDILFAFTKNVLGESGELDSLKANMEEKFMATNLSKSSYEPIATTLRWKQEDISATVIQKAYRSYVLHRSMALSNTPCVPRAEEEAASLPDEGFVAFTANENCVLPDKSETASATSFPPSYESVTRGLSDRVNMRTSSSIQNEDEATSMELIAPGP
T1 sequence (Q9NY72 23-215 partner): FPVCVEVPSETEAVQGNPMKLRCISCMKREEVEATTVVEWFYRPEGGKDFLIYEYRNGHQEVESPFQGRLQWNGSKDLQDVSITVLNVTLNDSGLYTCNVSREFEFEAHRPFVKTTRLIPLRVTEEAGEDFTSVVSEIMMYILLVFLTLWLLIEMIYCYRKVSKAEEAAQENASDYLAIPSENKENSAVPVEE

Consider `Cc1nc(F)ccc1Oc1nnc(C(F)(F)F)c(C)c1C(=O)Nc1cccc([S@@](C)(=O)=NC(=O)CO)c1` [Example 20D, (R)-3-((6-fluoro-2-methylpyridin-3-yl)oxy)-N-(3-(N-(2-hydroxyacetyl)-S-methylsulfonimidoyl)phenyl)-5-methyl-6-(trifluoromethyl)pyridazine-4-carboxamide], for which the half-inhibitory concentration (IC50) was in the range of 5 to 50 nM under setting [1] and 5 to 50 nM under setting [2].
As to `Cc1nc(F)ccc1Oc1ccc(C(F)(F)F)c(F)c1C(=O)Nc1cccc([S@@](C)(=O)=NC(=O)[C@@H]2CCCN2)c1` [Example 21B, (S)—N—((R)-(3-(2-fluoro-6-((6-fluoro-2-methylpyridin-3-yl)oxy)-3-(trifluoromethyl)benzamido)phenyl)(methyl)(oxo)-λ^6-sulfaneylidene)pyrrolidine-2-carboxamide], the IC50 lay within 5 to 50 nM under setting [3] and 5 to 50 nM under setting [4].
With `COc1cc(C#N)ccc1Oc1ncc(-c2ccc(C)cc2)c(C)c1C(=O)Nc1cccc([S@](C)(=N)=O)c1` [Example 21C, (R)-2-(4-cyano-2-methoxyphenoxy)-4-methyl-N-(3-(S-methylsulfonimidoyl)phenyl)-5-(p-tolyl)nicotinamide], the IC50 is, setting by setting: under setting [5], under 5 nM; under setting [6], under 5 nM.
For the compound `Cc1nc(F)ccc1Oc1nnc(C(F)(F)F)c(C)c1C(=O)Nc1cccc([S@@](C)(=O)=NC(=O)[C@@H](C)N)c1` [Example 21D, N-(3-((R)—N-(D-alanyl)-S-methylsulfonimidoyl)phenyl)-3-((6-fluoro-2-methylpyridin-3-yl)oxy)-5-methyl-6-(trifluoromethyl)pyridazine-4-carboxamide], the half-maximal inhibitory concentration (IC50) is, setting by setting: under setting [1], under 5 nM; under setting [2], under 5 nM.
Turning to `Cc1nc(F)ccc1Oc1ccc(C(F)(F)F)c(C)c1C(=O)Nc1cccc([S@@](C)(=O)=NC(=O)[C@@H]2CCCN2)c1` [Example 22B], the IC50 by setting is: under setting [3], under 5 nM; under setting [4], under 5 nM.
For `COc1cc(C#N)ccc1Oc1ncc(-c2ccc(C)cn2)c(C)c1C(=O)Nc1cccc([S@](C)(=N)=O)c1` [Example 22C, (R)-6-(4-cyano-2-methoxyphenoxy)-4,5-dimethyl-N-(3-(S-methylsulfonimidoyl)phenyl)-[2,3-bipyridine]-5-carboxamide], the IC50 runs as follows: (P1 measurement, resting state block, holding potential −120 mV, third set of compounds, read-out: P1 (IC50, resting state block)) 50 to 100 nM; (P2 measurement, inactivated state block, inactivation step −35 mV 10 sec, third set of compounds, read-out: P2 (IC50, inactivated state block)) 50 to 100 nM.
In the case of `Cc1nc(F)ccc1Oc1ncc(C(F)(F)F)c(C)c1C(=O)Nc1cccc([S@@](C)(=O)=NC(=O)[C@@H]2CCCN2)c1` [Example 22D, N-(3-((R)—N-(L-prolyl)-S-methylsulfonimidoyl)phenyl)-2-((6-fluoro-2-methylpyridin-3-yl)oxy)-4-methyl-5-(trifluoromethyl)nicotinamide], the IC50 under setting [1] is under 5 nM and the half-inhibitory concentration (IC50) under setting [2] is under 5 nM.
As for `Cc1nc(F)ccc1Oc1ccc(C(F)(F)F)c(C)c1C(=O)Nc1cccc([S@@](C)(=O)=NC(=O)[C@H](C)O)c1` [Example 23B], the IC50 under setting [3] is under 5 nM and the IC50 under setting [4] is under 5 nM.
On to `COc1cc(C#N)ccc1Oc1ncc(-c2ccc(C(F)F)cc2)c(C)c1C(=O)Nc1cccc([S@](C)(=N)=O)c1` [Example 23C, (R)-2-(4-cyano-2-methoxyphenoxy)-5-(4-(difluoromethyl)phenyl)-4-methyl-N-(3-(S-methylsulfonimidoyl)phenyl)nicotinamide], for which the IC50 was under 5 nM under setting [5] and under 5 nM under setting [6].
In the case of `Cc1nc(F)ccc1Oc1ncc(C(F)(F)F)c(C)c1C(=O)Nc1cccc([S@@](C)(=O)=NC(=O)[C@H]2CCCN2)c1` [Example 23D, N-(3-((R)—N-(D-prolyl)-S-methylsulfonimidoyl)phenyl)-2-((6-fluoro-2-methylpyridin-3-yl)oxy)-4-methyl-5-(trifluoromethyl)nicotinamide formate], the IC50 under setting [1] was under 5 nM and the IC50 under setting [2] was under 5 nM.
Turning to `Cc1nc(F)ccc1Oc1ccc(C(F)(F)F)c(C)c1C(=O)Nc1cccc([S@@](C)(=O)=NC(=O)[C@@H](C)N)c1` [Example 24B], the IC50 by setting is: under setting [3], under 5 nM; under setting [4], under 5 nM.
The compound `COc1cc(C#N)ccc1Oc1ncc(Br)c(C)c1C(=O)Nc1cccc([S@](C)(=N)=O)c1` [Example 24C, (R)-5-bromo-2-(4-cyano-2-methoxyphenoxy)-4-methyl-N-(3-(S-methylsulfonimidoyl)phenyl)nicotinamide] yielded an IC50 under setting [5] of under 5 nM and an IC50 under setting [6] of under 5 nM.
`Cc1nc(F)ccc1Oc1nnc(C(F)(F)F)c(C)c1C(=O)Nc1cccc([S@@](C)(=O)=NC(=O)CN)c1` [Example 24D, (R)-3-((6-fluoro-2-methylpyridin-3-yl)oxy)-N-(3-(N-glycyl-S-methylsulfonimidoyl)phenyl)-5-methyl-6-(trifluoromethyl)pyridazine-4-carboxamide] came in with a half-inhibitory concentration (IC50) under setting [1] of 5 to 50 nM and a 50% inhibitory concentration (IC50) under setting [2] of 5 to 50 nM.
As for `CNCC(=O)N=[S@](C)(=O)c1cccc(NC(=O)c2c(Oc3ccc(F)nc3C)ccc(C(F)(F)F)c2C)c1` [Example 25B], the concentration for half-maximal inhibition (IC50) by setting is: under setting [3], under 5 nM; under setting [4], under 5 nM.
As for `COc1cc(C#N)ccc1Oc1ncc(Cl)c(C)c1C(=O)Nc1cccc(S(C)(=N)=O)c1` (stereo not drawn) [Example 25C, 5-chloro-2-(4-cyano-2-methoxyphenoxy)-4-methyl-N-(3-(S-methylsulfonimidoyl)phenyl)nicotinamide], the IC50 by setting is: under setting [5], under 5 nM; under setting [6], under 5 nM.
Turning to `CNCC(=O)N=[S@](C)(=O)c1cccc(NC(=O)c2c(Oc3ccc(F)nc3C)nnc(C(F)(F)F)c2C)c1` [Example 25D, (R)-3-((6-fluoro-2-methylpyridin-3-yl)oxy)-5-methyl-N-(3-(S-methyl-N-(methylglycyl)sulfonimidoyl)phenyl)-6-(trifluoromethyl)pyridazine-4-carboxamide], the IC50 under setting [1] was under 5 nM and the 50% inhibitory concentration (IC50) under setting [2] was under 5 nM.
As to `Cc1nc(F)ccc1Oc1ccc(C(F)(F)F)c(C)c1C(=O)Nc1cccc([S@@](C)(=O)=NC(=O)CN)c1` [Example 26B], the IC50 was under 5 nM under setting [3] and under 5 nM under setting [4].
Turning to `COc1cc(C#N)ccc1Oc1ncc(Cl)c(C)c1C(=O)Nc1cccc([S@](C)(=N)=O)c1` [Example 26C, (R)-5-chloro-2-(4-cyano-2-methoxyphenoxy)-4-methyl-N-(3-(S-methylsulfonimidoyl)phenyl)nicotinamide], the half-maximal inhibitory concentration (IC50) is, setting by setting: under setting [5], 5 to 50 nM; under setting [6], 5 to 50 nM.
As to `Cc1nc(F)ccc1Oc1nnc(C(F)(F)F)c(C)c1C(=O)Nc1cccc([S@@](C)(=O)=NC(=O)[C@@H]2CCCN2)c1` [Example 26D, N-(3-((R)—N-(L-prolyl)-S-methylsulfonimidoyl)phenyl)-3-((6-fluoro-2-methylpyridin-3-yl)oxy)-5-methyl-6-(trifluoromethyl)pyridazine-4-carboxamide], the half-inhibitory concentration (IC50) was under 5 nM under setting [1] and under 5 nM under setting [2].
With `Cc1nc(F)ccc1Oc1ccc(C(F)(F)F)c(C)c1C(=O)Nc1cccc([S@@](C)(=O)=NC(=O)CO)c1` [Example 27B], the IC50 was under 5 nM under setting [3] and under 5 nM under setting [4].
In the case of `COc1cc(C#N)ccc1Oc1ncc(-c2cn(C)nc2C)c(C)c1C(=O)Nc1cccc([S@](C)(=N)=O)c1` [Example 27C, (R)-2-(4-cyano-2-methoxyphenoxy)-5-(1,3-dimethyl-1H-pyrazol-4-yl)-4-methyl-N-(3-(S-methylsulfonimidoyl)phenyl)nicotinamide], the IC50 was in the range of 50 to 100 nM under setting [5] and 50 to 100 nM under setting [6].
Regarding `Cc1nc(F)ccc1Oc1ncc(C(F)(F)F)c(C)c1C(=O)Nc1cccc([S@@](C)(=O)=NC(=O)[C@@H]2C[C@H](O)CN2)c1` [Example 27D, 2-((6-fluoro-2-methylpyridin-3-yl)oxy)-N-(3-((R)—N-((2S,4S)-4-hydroxypyrrolidine-2-carbonyl)-S-methylsulfonimidoyl)phenyl)-4-methyl-5-(trifluoromethyl)nicotinamide], the IC50 reads like this: under setting [1], under 5 nM; under setting [2], under 5 nM.
For `Cc1nc(F)ccc1Oc1ccc(C(F)(F)F)c(C)c1C(=O)Nc1cccc([S@@](C)(=O)=NC(=O)[C@@H](C)O)c1` [Example 28B], the IC50 is under 5 nM under setting [3] and under 5 nM under setting [4].
For the compound `COc1cc(C#N)ccc1Oc1ncc(C(F)(F)F)c(C)c1C(=O)Nc1cccc(S(N)(=O)=O)c1` [Example 28C, 2-(4-cyano-2-methoxyphenoxy)-4-methyl-N-(3-sulfamoylphenyl)-5-(trifluoromethyl)nicotinamide], the IC50 runs as follows: under setting [5], under 5 nM; under setting [6], under 5 nM.
Consider `Cc1nc(F)ccc1Oc1nnc(C(F)(F)F)c(C)c1C(=O)Nc1cccc([S@@](C)(=O)=NC(=O)CN2CC(F)(F)C2)c1` [Example 28D, (R)—N-(3-(N-(2-(3,3-difluoroazetidin-1-yl)acetyl)-S-methylsulfonimidoyl)phenyl)-3-((6-fluoro-2-methylpyridin-3-yl)oxy)-5-methyl-6-(trifluoromethyl)pyridazine-4-carboxamide], for which the IC50 under setting [1] was under 5 nM and the IC50 under setting [2] is under 5 nM.
As for `CNCC(=O)N=[S@](C)(=O)c1cccc(NC(=O)c2cc(Cl)c(C(F)(F)F)cc2Oc2ccc(F)nc2C)c1` [Example 29B], the IC50 was under 5 nM under setting [3] and under 5 nM under setting [4].
With `Cc1cc(C#N)ccc1Oc1cc(C(F)(F)F)nnc1C(=O)Nc1cccc(S(C)(=O)=O)c1` [Example 29C, 4-(4-cyano-2-methylphenoxy)-N-(3-(methylsulfonyl)phenyl)-6-(trifluoromethyl)pyridazine-3-carboxamide], the IC50 under setting [5] is over 200 nM and the half-inhibitory concentration (IC50) under setting [6] was over 200 nM.

What is called IC50 is the concentration that gives 50% inhibition.
